Laboratory results taken from patent US5536729A, “Rapamycin formulations for oral administration” (priority 1994, dated 1996).

Assays:
Candida albicans = conditions: cited from earlier work
Microsporum gypseum = conditions: cited from earlier work
[1] = system: rejection in vivo in allograft transplantation; conditions: Calne 1989; Morris and Meiser 1989; cited from earlier work
tumor = conditions: in vivo; cited from earlier work
[2] = system: experimental allergic encephalomyelitis; conditions: model for multiple sclerosis; Martel 1977; cited from earlier work
adjuvant arthritis = conditions: model for rheumatoid arthritis; Martel 1977; cited from earlier work
IgE-like antibodies = conditions: Martel 1977; cited from earlier work
transplant rejection = conditions: useful in preventing transplant rejection; cited from earlier work
[3] = system: systemic lupus erythematosus; conditions: U.S. Pat. No. 5,078,999; cited from earlier work
pulmonary inflammation = conditions: U.S. Pat. No. 5,080,899; cited from earlier work
[4] = system: insulin dependent diabetes mellitus; conditions: Fifth Int. Conf. Inflamm. Res. Assoc. 1990; cited from earlier work
[5] = system: smooth muscle cell proliferation and intimal thickening; conditions: following vascular injury; Morris 1992; cited from earlier work
thymocyte = conditions: in vitro; cited from earlier work
[6] = cited from earlier work
[7] = design: species or system Cynomolgus monkeys; conditions: cynomolgus monkey, in vivo, po, 50 mg/kg
Procedure: Cynomolgus monkeys were administered the formulation above at a dose of 0.25 mg/kg of rapamycin and the following serum concentrations were determined at the indicated time after dosing.
Cynomolgus monkeys were administered the above formulation at a dose of 50 mg/kg of rapamycin and the following serum concentrations were determined at the indicated time after dosing.
Cynomolgus monkeys were administered this second comparative formulation at a dose of 50 mg/kg of rapamycin and the following serum concentrations were determined at the indicated time after dosing.

Row | Compound | effect on growth of fungi (Candida albicans) | effect on growth of fungi (Microsporum gypseum) | inhibiting rejection in vivo in allograft transplantation [1] | antitumor activity (tumor) | efficacy in experimental allergic encephalomyelitis model [2] | efficacy in adjuvant arthritis model (adjuvant arthritis) | formation of IgE-like antibodies (IgE-like antibodies) | immunosuppressive effect (transplant rejection) | preventing or treating systemic lupus erythematosus [3] | preventing or treating pulmonary inflammation (pulmonary inflammation) | preventing or treating insulin dependent diabetes mellitus [4] | preventing or treating smooth muscle cell proliferation and intimal thickening [5] | thymocyte proliferation (thymocyte) | activity in vivo [6] | Rapamycin Concentration in Monkey Serum [7]
1 | CO[C@H]1C[C@@H]2CC[C@@H](C)[C@@](O)(O2)C(=O)C(=O)N2CCCC[C@H]2C(=O)O[C@H]([C@H](C)C[C@@H]2CC[C@@H](O)[C@H](OC)C2)CC(=O)[C@H](C)/C=C(\C)[C@@H](O)[C@@H](OC)C(=O)[C@H](C)C[C@H](C)/C=C/C=C/C=C/1C [Rapamycin, rapamycin] | adversely affects the growth of fungi | adversely affects the growth of fungi | effectiveness of rapamycin in inhibiting rejection in vivo in allograft transplantation | antitumor activity | effective | effective | effectively inhibited | immunosuppressive effects | useful in preventing or treating | useful in preventing or treating | useful in preventing or treating | useful in preventing or treating | inhibit thymocyte proliferation in vitro | immunosuppressive, antifungal and antiinflammatory activity in vivo | –
2 | C=CC[C@@H]1/C=C(\C)C[C@H](C)C[C@H](OC)[C@H]2O[C@@](O)(C(=O)C(=O)N3CCCC[C@H]3C(=O)O[C@H](/C(C)=C/[C@@H]3CC[C@@H](O)[C@H](OC)C3)[C@H](C)[C@@H](O)CC1=O)[C@H](C)C[C@@H]2OC [FK-506] | – | – | – | – | – | – | – | effective as immunosuppressive agents | – | – | – | – | – | – | –
3 | CO[C@H]1C[C@@H]2CC[C@@H](C)[C@@](O)(O2)C(=O)C(=O)N2CCCC[C@H]2C(=O)O[C@H]([C@H](C)C[C@@H]2CC[C@@H](O)[C@H](OC)C2)CC(=O)[C@H](C)/C=C(\C)[C@@H](O)[C@@H](OC)C(=O)[C@H](C)C[C@H](C)/C=C/C=C/C=C/1C [Comparative Example 2] | – | – | – | – | – | – | – | – | – | – | – | – | – | – | BDL (key: BDL: Below detection limit (detection limit = 0.006 μg/ml))
